Paper PMC12851007 (Angewandte Chemie (International Ed. in English), 2025)
Where a SMILES comes first, the peptide text is derived from it.

Key:
[1] = format: binding; conditions: LCG displacement in 10 mM Hepes, pH 7.0, 25 °C; fluorescence; error = SD of nonlinear fit, n = 1
Protocol: Fluorescence titrations were performed as previously described and the resulting titration curves we re an al yz ed usi ng established pro cedur es . Competitive titrations were eithe r anal yz ed with a fitting function assuming 1:1 host-competitor complexes[3] or with a fitting function involving hi gher complex es with more than on e h ost bound per peptide.[4] In the latter c ase, an identical binding affinity is assumed for all binding sites. […]
Figure S1. a) Fluorescence titration of 0.5 µM LCG ( λex = 369 n m) with varying concentrations of CX4 in 10 mM Hepes, pH 7.0, 25 °C .b) Respective titration curve ( λem = 502 nm) with fitted line . […]
Figure S2. a) Competitive fluorescence titration wit h 0.5 µM LCG, 1 µM CX4 ( λex = 369 nm) and varying concentrations of penetratin in 10 mM Hepes, pH 7.0, 25 °C . b) Respective titration c ur ve (λem = 502 nm) with fitted line .
(also on this page, place not known: analyzed using procedures. were either analyzed host -competitor higher complexes one host case, 700 Intensity Intensity (λex °C. line. 650 0 Intensity 0 Intensity b) curve (λem nm) with line.)

[2] = Dual-channel assay, CX4/LCG channel, POPC vesicles; format: in vitro ADME; conditions: 175 mM glucose; for EC50: 12.5 µM POPC⸧CX4/LCG-LUVs and 12.5 µM POPC⸧CF-LUVs in 10 mM Hepes, pH 7.5, 25 °C, λexc 369/λem 475 nm, error = SD of fit, n = 1; for membrane activity in the CX4/LCG channel compared with the CF channel: dual-channel, seven independent POPC LUV batches (n = 7), penetratin 15 µM, Pep-1 10 µM, LRLLRW 30 µM, TP10 0.15 µM, 10 mM Hepes, pH 7.5, t-test/ANOVA p < 0.001, melittin: Figure S35 and Table S9
Excerpt: (§1) With the established identical extravesicular conditions in both assays, we further envisaged a simultaneous measurement of both assays within the same solution to enhance the comparability of the measurements. This became possible after optimization of the excitation and emission wavelengths. […] A further optimization was required, because the dye concentrations in the CF assay and the CX4/LCG assay are largely different.^[ [51], [52] ^] Consequently, simultaneous monitoring requires the detection of a low amount of LCG in the presence of a high concentration of the much more brightly fluorescent CF, which challenges the dynamic range of a typical fluorescence spectrometer in a dual‐channel measurement. To reduce the fluorescence read‐out of CF, the excitation wavelength was shifted from the absorption maximum at ca. 490 nm to 525 nm, where CF has a much lower absorbance, and the emission in the CF channel was shifted from its maximum at ca. 515 nm to 545 nm to further reduce the fluorescence of CF. To maintain a high LCG fluorescence, excitation was performed at the absorption maximum at 369 nm. Since CF has a residual absorbance at this excitation wavelength, emission in the LCG channel was monitored at 475 nm instead of 502 nm to eliminate spill‐over of CF fluorescence into the LCG channel. […]
(§2) Time-dep endent fluores cence intensit y traces, I (t), were subsequentl y normalized to fractional intensities, If(t), using equation (1) and the concentration- dependent fractional intensities just before the addition of th e calibration co cktail, I f, w ere then normaliz ed to fr actional membran e activities, Y, using equation (2). The fractional membrane activities, Y, were subsequently plotted against the peptide concentration, c, and anal ysed using the Hill equation (3) to obtain the effective molar concentration, EC 50, and the Hill coefficient, n. For peptides with too low activity to determine Y max ex perimentall y, Y max was fixed at 1.0 during fitting. […]
(§3) Dual-Channel Measurements
(§4) Vesicles w ere prep ared a s described abov e (se e en try (4) in Table S2 and entry (3) in Table S3) and eluted with freshl y prepared 10 mM Hepes, 175mM glucos e, pH 7.5 i n the size exclusion chromatograph y. For the measurements, an approp riate volume o f the liposome stock solutions was diluted to 2m L in a 10× 10 mm PS cuvette wi th 10 mM Hep es bu ffer and 175 mM glucos e at pH 7.5 to afford 12.5µM POPC ⊃CX4/LCG-LUVs and 12.5 µM POPC⊃CF-LUVs (25 µM POPC total). The cuvette was placed into a thermostatted fluorimeter sample holder at 25.0 °C and gentl y stirred at 300 rpm. The fluorescence intensity w as simultaneous l y r eco rded in the CF chann el ( λ exc = 525 nm, λ em = 545 nm) and in the LCG channel ( λ exc = 369 nm, λ em = 475 nm) with an ex citation slit width of 5 nm and an emission slit width of 5 n m during addition of 20 µL peptide stock solution of varying concentrations at 60 s and 20 µL of a calibration

[3] = Dual-channel assay, CF channel, POPC vesicles; format: biochemical; conditions: 12.5 µM POPC⸧CX4/LCG-LUVs and 12.5 µM POPC⸧CF-LUVs in 10 mM Hepes, 175 mM glucose, pH 7.5, 25 °C; λexc 525/λem 545 nm; error = SD of fit, n = 1
Excerpt: as §1, §2, §3
Vesicles w ere prep ared a s described abov e (se e en try (4) in Table S2 and entry (3) in Table S3) and eluted with freshl y prepared 10 mM Hepes, 175mM glucos e, pH 7.5 i n the size exclusion chromatograph y. […] The fluorescence intensity w as simultaneous l y r eco rded in the CF chann el ( λ exc = 525 nm, λ em = 545 nm) and in the LCG channel ( λ exc = 369 nm, λ em = 475 nm) with an ex citation slit width of 5 nm and an emission slit width of 5 n m during addition of 20 µL peptide stock solution of varying concentrations at 60 s and 20 µL of a calibration

[4] = Dual-channel assay, CX4/LCG channel, POPC/POPS vesicles; format: in vitro ADME; conditions: 12.5 µM POPC/POPS(9:1)⸧CX4/LCG-LUVs and 12.5 µM POPC/POPS(9:1)⸧CF-LUVs in 10 mM Hepes, 175 mM glucose, pH 7.5; error = SD of fit, n = 1
Excerpt: Ultimately, we have also tested the new conditions with vesicles containing the anionic lipid 1‐palmitoyl‐2‐oleoyl‐phosphatidylserine (POPS) with TP10, Pep‐1, and the LRLLRW peptide (Figures S41–S43 and Table S11). The results confirmed that the absolute activity as well as the difference between the CF dye efflux assay and the tandem membrane assay was nearly unaffected by the presence of 10% POPS with the only exception that the membrane‐translocating ability of TP10 was enhanced.
Assay protocol. An appropriate volume of the liposome stock solutions was diluted to 2 mL with outside buffer in a 10 ×10 mm quartz glass cuvette to afford a phospholipid concentration of 25 µM. The cuvette was placed into a thermostatted fluorimeter sample holder and gentl y stirred at 300 rpm at (25.0± 0.1) °C. Subsequentl y, the time-dependent change in fluorescence intensity (C F: λ exc = 492 nm, λ em = 517 nm) was recorded during addition of 20 µL peptide stock solution of var ying concentrations at 60 s and 20µ L of a calibration cocktail (1. 6% […]
as §2, §3, §4

Row | SMILES | K a, binding constant of peptide to CX4 [1] | EC50 [2] | membrane activity in the CX4/LCG channel compared with the CF channel [2] | EC50 [3] | EC50 [4] | EC50, dual-channel assay, CX4/LCG channel, POPC/POPS [4]
1 | CC(C)C[C@H](NC(=O)[C@H](CC(C)C)NC(=O)[C@H](CCCNC(=N)N)NC(=O)[C@@H](N)CC(C)C)C(=O)N[C@@H](CCCNC(=N)N)C(=O)N[C@@H](Cc1c[nH]c2ccccc12)C(N)=O [LRLLRW] (H-LRLLRW-NH2) | (1.3 ± 0.1) × 10^6 M^−1 | 9 ± 0.9 µM | significantly higher | 49 ± 6 µM | 9 ± 1.6 µM | –
2 | CC(C)[C@H](NC(=O)[C@H](CCCCN)NC(=O)[C@H](CCCNC(=N)N)NC(=O)[C@H](CCCCN)NC(=O)[C@H](CCCCN)NC(=O)[C@H](CCCCN)NC(=O)[C@@H]1CCCN1C(=O)[C@H](CCC(N)=O)NC(=O)[C@H](CO)NC(=O)[C@H](Cc1c[nH]c2ccccc12)NC(=O)[C@H](CC(=O)O)NC(=O)[C@@H](NC(=O)[C@H](Cc1c[nH]c2ccccc12)NC(=O)[C@H](Cc1c[nH]c2ccccc12)NC(=O)[C@@H](NC(=O)[C@H](CC(=O)O)NC(=O)[C@H](Cc1c[nH]c2ccccc12)NC(=O)[C@H](Cc1c[nH]c2ccccc12)NC(=O)[C@@H](NC(=O)[C@H](CC(=O)O)NC(=O)[C@@H](N)CCCCN)[C@@H](C)O)[C@@H](C)O)[C@@H](C)O)C(=O)O [Pep‐1] (H-KDTWWDTWWTDWSQPKKKRKV-OH) | (2.8 ± 0.2) × 10^6 M^−1 | 22 ± 16 µM | significantly higher | > 1000 µM | 5.3 ± 0.66 µM | –
3 | CC[C@H](C)[C@H](NC(=O)[C@H](CCCCN)NC(=O)[C@H](CCCCN)NC(=O)[C@H](C)NC(=O)[C@H](CC(C)C)NC(=O)[C@H](C)NC(=O)[C@H](C)NC(=O)[C@H](CC(C)C)NC(=O)[C@H](C)NC(=O)[C@H](CCCCN)NC(=O)[C@H](CC(C)C)NC(=O)[C@H](CC(N)=O)NC(=O)[C@@H](NC(=O)[C@H](CCCCN)NC(=O)CNC(=O)[C@H](CC(C)C)NC(=O)[C@H](CC(C)C)NC(=O)[C@H](Cc1ccc(O)cc1)NC(=O)CNC(=O)[C@H](C)N)[C@@H](C)CC)C(=O)N[C@@H](CC(C)C)C(=O)O [TP10] | – | 0.78 ± 0.09 µM | significantly higher membrane activity with the CF dye efflux assay | 0.053 ± 0.007 µM | 0.076 ± 0.01 µM | enhanced
4 | CC[C@H](C)[C@H](NC(=O)[C@H](CCCCN)NC(=O)[C@@H](NC(=O)[C@@H](N)CCC(N)=O)[C@@H](C)CC)C(=O)N[C@@H](Cc1c[nH]c2ccccc12)C(=O)N[C@@H](Cc1ccccc1)C(=O)N[C@@H](CCC(N)=O)C(=O)N[C@@H](CC(N)=O)C(=O)N[C@@H](CCCNC(=N)N)C(=O)N[C@@H](CCCNC(=N)N)C(=O)N[C@@H](CCSC)C(=O)N[C@@H](CCCCN)C(=O)N[C@@H](Cc1c[nH]c2ccccc12)C(=O)N[C@@H](CCCCN)C(=O)N[C@@H](CCCCN)C(=O)O (H-QIKIWFQNRRMKWKK-OH) | (9.9 ± 1.8) × 10^7 M^−1 | 28 ± 2 µM | significantly higher | > 1000 µM | – | –
